The values that follow come from PMC4285233 (Molecular Microbiology, 2014).

The structures appear in SMILES notation.

The target in assay [1] is T1, Gap1 (general amino acid permease) (Saccharomyces cerevisiae, UniProt P19145).
T1 sequence (P19145 1-602): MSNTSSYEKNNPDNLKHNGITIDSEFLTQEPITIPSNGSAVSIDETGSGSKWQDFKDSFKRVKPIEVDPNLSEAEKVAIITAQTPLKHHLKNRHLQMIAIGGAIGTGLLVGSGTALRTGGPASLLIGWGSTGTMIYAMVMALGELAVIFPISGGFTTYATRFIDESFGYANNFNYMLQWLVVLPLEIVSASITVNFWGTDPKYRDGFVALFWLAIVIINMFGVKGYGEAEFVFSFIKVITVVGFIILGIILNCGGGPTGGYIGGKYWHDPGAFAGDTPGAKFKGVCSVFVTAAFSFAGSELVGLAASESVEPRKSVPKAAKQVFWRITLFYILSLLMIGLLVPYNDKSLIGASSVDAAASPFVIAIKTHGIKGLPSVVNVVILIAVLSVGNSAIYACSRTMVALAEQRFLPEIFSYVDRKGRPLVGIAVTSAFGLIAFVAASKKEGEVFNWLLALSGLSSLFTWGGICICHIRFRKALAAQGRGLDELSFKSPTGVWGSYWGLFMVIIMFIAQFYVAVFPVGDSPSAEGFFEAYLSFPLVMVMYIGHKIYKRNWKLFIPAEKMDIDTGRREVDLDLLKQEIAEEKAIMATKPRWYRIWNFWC
The assay can be described thus: inhibition of L-citrulline uptake in intact yeast. In kind it is cell-based.

In assay [2] the target is T1, Gap1 (general amino acid permease). The assay can be described thus: inhibition of […]-L-citrulline uptake in intact yeast. In kind it is cell-based.

As to `N[C@H](Cc1c[nH]cn1)C(=O)O` [D-histidine], the “inhibition of L-citrulline uptake in intact yeast (Fig. S6B, C)” value in assay [1] is “Moreover they are acting largely as competitive inhibitors of L-citrulline transport (Fig. S6B and C)”.
A word on the Ki: it is the dissociation constant of the complex between target and ligand, obtained from inhibition or displacement. High values mean weaker binding, low ones tighter binding. In the case of `N[C@@H](Cc1c[nH]cn1)C(=O)O` [L-histidine], the Ki in assay [2] worked out at 2.5 µM.
In assay [2], `NCCCC[C@H](N)C(=O)O` [L-lysine] came in with a Ki of 9.5 µM.
Same read-out and setting: with `N[C@@H](Cc1c[nH]c2ccccc12)C(=O)O` [L-tryptophan] the figure was 3.3 µM.
With `NCCC(=O)O` [β-alanine], the “inhibition of L-citrulline uptake in intact yeast (Fig. S6B, C)” value in assay [1] is “Moreover they are acting largely as competitive inhibitors of L-citrulline transport (Fig. S6B and C)”.
